This is an account of results in US6974664B2, “Screening method for cancer therapeutics and stable antitumor drug” (The Board of Trustees of the Leland Stanford University, priority 2000, dated 2005).

Each structure is given as a SMILES string. pIC50, pKi: −log10 of the molar value.

For series [1], the system named is mouse B cell lymphoma cell line LYAS. Nature of the series: FACS staining for annexin V, LYAS cells. In kind it is cell-based. As to conditions: 6 hours incubation, read-out: IC50, percentage of annexin V+ cells. The protocol: (§1) Activity was measured by FACS staining for annexin V and by MTT assay.
The mouse B cell lymphoma cell line LYAS was incubated with apoptolidin in a compound of formula 1 for 6 hours. The treating compounds were removed and the cells were stained with annexin V-CY5PE for 15 minutes and washed 3 times. Cells were analyzed on the FACSAN and the percentage of annexin V+ cells was quantified. The IC50 of the compound of formula 1 was 10 μM; the IC50 of apoptolidin was 100 nM.

In series [2] the test system is breast carcinoma cell line MCF-7. The series can be described thus: MTT assay, MCF-7 cells. In kind it is cell-based. Particulars: Homo sapiens, MCF7; MCF-7, 120 hours. How it is done: as §1
The breast carcinoma cell line MCF-7 was tested in 96-well plates in triplicate. Dilutions of apoptolidin or the compound of formula 1 were added to the wells for 120 hours. MTT was then added to the wells at a final concentration of 0.5 mg/ml. The supernatant was removed and the crystals dissolved in 40 mM HCl and isopropanol. The plates were scanned on a microplate reader at 595 nm. The IC50 of the compound of formula 1 was 10 μM; the IC50 of apoptolidin was 90 nM.

In a further series the test system is PARP. Nature of the series: PARP cleavage in the presence of apoptolidin. In kind it is cell-based. As to conditions: 1 μM apoptolidin, within 6 hours. The text has this: Among those cells which have high ATP requirements, aerobic cells are sensitive, while anaerobic cells are resistant.
Series [3] is described as follows: Stability by analytical reverse phase HPLC at pH 4, 7 and 10. Type of series: physicochemical. As to conditions: for time structure retained: pH 4; for time remained intact / decomposition: pH 10. How it is done: Stability was monitored by an analytical reverse phase HBLC using a Beckman C18 column (4.6 mm×25 cm). Stability was analyzed in this manner at pH 4, 7 and 10, both for apoptolidin and the compound of formula 1. At pH 4, apoptolidin retained its structure for 24 hours; the compound of formula 1 for at least 28 hours when observation was terminated.

In series [4] the target is T1, yeast mitochondrial FOF1-ATP synthase (Saccharomyces cerevisiae, UniProt P00830+P07251+P38077+P61829).
T1 construct: 20 μg of yeast mitochondrial protein (as measured by the Lowry method) was added to reaction buffer; endogenous in cells; host or cells: Crude mitochondria from Saccharomyces cerevisiae strain DBY7286 grown on lactate
Nature of the series: Yeast mitochondrial ATPase activity assay. In kind it is biochemical. As to conditions: for consumption of NADH: 80 μM oligomycin or 87 μM apoptolidin, 20 μg yeast mitochondrial protein; for pKi: yeast mitochondria, pH 8, read-out: calculated Ki, ATPase activity. The protocol:
The assay is that described in Example 4 hereinbelow where the combination of pyruvate kinase and LDH effect conversion of phosphoenol pyruvate to lactate in the presence of ATP and NADH. With increasing concentrations of either drug, the specific activity of the enzyme rapidly declines. The calculated Ki values for oligomycin and apoptolidin are 1 μM and 5 μM respectively. Although the observed Ki for apoptolidin is five-fold higher than that for oligomycin, this may be an underestimate of the potency of apoptolidin. […] Mitochondrial ATPase activity assays are typically performed at pH 8. Thus, the true Ki for apoptolidin may be lower than that observed herein and accounts for the observation the IC50 values for apoptolidin against both LYas as well as MCF7 cells are substantially lower than the measured Ki against mitochondrial ATPase. This difference might be explained by a preference for mammalian ATPase over yeast ATPase, or by the possibility that apoptosis via this pathway is a dominant phenotype.
Crude yeast mitochondria were isolated from a lactate grown Saccharomyces cerevisiae strain DBY7286 (mata, ura-/-) according to published procedures. Briefly, 2 L shake flasks of yeast were grown up on semisynthetic lactate medium at 30° C. with vigorous shaking to an OD600 of 3. Cells were collected at 4000 g and the wet weight of the pellet was determined. Cells were converted to spheroplasts by a 30 minute incubation at 30° C. with 2.5 mg Zymolyase 20T (ICN Biochemicals) per gram of packed cells in a volume of 2 ml per gram of packed cells in Buffer A (1.2 M sorbitol, 20 mM potassium phosphate, pH 7.4). The Zymolyase 20T was washed out twice by centrifugation at 4000 g and resuspension in Buffer A. The spheroplasts were then resuspended in Buffer B (0.6 M sorbitol, 20 mM K^+ MES, pH6.0) with 0.5 mM PMSF and homogenized in a 40 ml glass Dounce homogenizer using 15 strokes with a tight-fitting pestle. The unbroken spheroplasts were collected by centrifugation at 1500 g and rehomogenized with 15 strokes in Buffer B plus PMSF. […] The protein concentration was determined by the Lowry assay and the dark brown mitochondria were resuspended in Buffer C (0.6 M sorbitol, 20 mM HEPES, pH 7.4). Mitochondria were prepared fresh and ATPase activity was measured within 6 hours.
Mitochondrial ATPase activity was measured by standard methods. Briefly, 20 μg of yeast mitochondrial protein (as measured by the Lowry method) was added to reaction buffer containing 50 mM Tris (pH 8.0), 1 mM ATP, 0.3 mM NADH, 3.3 mM MgCl2, 2 μg/ml antimycin A, 1 mM phosphoenol pyruvate, 5 U/ml lactate dehydrogenase, and 2.5 U/ml pyruvate kinase at 28° C. […]

For a further series, the system named is Jurkat cells. Nature of the series: Sensitization of Jurkat cells to apoptolidin by oxamate or deoxyglucose. Type of series: cell-based. The protocol: For example, Jurkat cells planted at 40,000 cells per well and treated with 1 μM of apoptolidin show no cell death over a time period of 20 hours. […] Treatment with these amounts of oxamate alone has no effect. (Oxamate is a known inhibitor of lactate dehydrogenase; which converts pyruvate to lactate.)
Another compound known to repress the flow of glucose through the fermentative pathway is deoxyglucose which competes with glucose for this pathway but results in a dead end. […] Deoxyglucose alone at the control concentrations has no effect.

The test system of the next series is LYas cells. The series can be described thus: % killing of LYas cells with apoptolidin or oligomycin plus oxamate. Type of series: cell-based, murine. As to conditions: 7 hours; for lowest concentration showing substantial killing in presence of oxamate: LYas cells 1×10^6 ml, with oxamate. The protocol:
Similar results are shown in FIG. 8 for LYas cells, where cells planted at 1×10^6 ml were assessed for % killing after 7 hours when treated with various concentrations of apoptolidin or oligomycin in the presence of various concentrations of oxamate. When no apoptosis drugs are administered, there is no effect of oxamate up to a concentration of 15 mM. However, at concentrations where the oxamate alone has no effect, both oligomycin and apoptolidin were able to show substantial killing at concentrations as low as 0.1 mM.

The subject of series [5] is breast carcinoma cell line MCF-7. Particulars: MCF-7, MTT assay; cited from earlier work.
The test system of series [6] is mouse B cell lymphoma cell line LYAS. Particulars: FACS staining for Annexin V; cited from earlier work.

As for `COC[C@@H](C[C@H]1O[C@@](O)([C@H](O)[C@@H]2C[C@H](OC)[C@@H](O)CC/C=C(C)/C=C/[C@@H](O[C@@H]3O[C@@H](C)[C@H](OC)[C@@H](O)[C@@H]3O)[C@H](C)/C=C(C)/C=C(C)/C=C(\C)C(=O)O2)[C@H](C)[C@@H](O)[C@H]1C)OC1C[C@](C)(O)[C@@H](O[C@H]2C[C@@H](OC)[C@H](O)[C@@H](C)O2)[C@H](C)O1` (stereo partly drawn) [apoptolidin], the pIC50 (as a rule, the IC50 on a negative log10 scale, so that one unit is a factor of ten) in series [1] is 7.00. For the same compound, the pIC50 in [2] was 7.05. The PARP cleavage result in the series on PARP is on record as “completely cleaved”. For the same compound, the half-life (as a rule, the time needed for the level to fall by half in the phase considered) in series [3] (buffer, pH 7, read-out: decomposition half-life (converted)) is around 5 h. Also, in [3], the time structure retained stood at 24 h and the “time remained intact / decomposition” value is given as “decomposed almost immediately”. For the same compound, in series [4], the “consumption of NADH” value is given as “dramatically reduced” and the pKi (commonly the Ki on a negative log10 scale, so that one unit is a factor of ten) is 5.30. For the same compound, the cell death result with Jurkat cells (1 μM apoptolidin + 5 mM oxamate) is “does not dramatically change this result”. For the same compound, in the series with Jurkat cells (1 μM apoptolidin + 50 mM oxamate), the “time at which cell death begins” value is on record as “four”. In the series with Jurkat cells (1 μM apoptolidin + 50 mM oxamate, by 20 hours), the cells killed is listed as 95%. In addition, the cell death result in the series with Jurkat cells (1 μM apoptolidin alone, 40,000 cells per well, over 20 hours) is listed as “no cell death”. Besides, in the series with LYas cells, the “lowest concentration showing substantial killing in presence of oxamate” value was 0.1 mM.

With `NC(=O)C(=O)O` [oxamate], the “effect on cell death, enhancer alone” value in the series on Jurkat cells (oxamate alone, 5 mM and 50 mM) is on record as “no effect”. In addition, the “effect on % killing, oxamate alone” value in the series on LYas cells (no apoptosis drug, up to 15 mM oxamate) was “no effect”.

In the case of `O=CC[C@@H](O)[C@H](O)[C@H](O)CO` [deoxyglucose, 2-deoxyglucose], the “effect on cell death, enhancer alone” value in the series with Jurkat cells (deoxyglucose alone at the control concentrations) is on record as “no effect”. Further, in the series with Jurkat cells (with 1 μM apoptolidin), the “lowest deoxyglucose concentration at which apoptolidin effects apoptosis” value was determined as 5 mM.

Turning to `COC[C@H](O)C[C@H]1O[C@@](O)([C@H](O)[C@@H]2C[C@H](OC)[C@@H](O)CC/C=C(C)/C=C/[C@@H](O[C@@H]3OC(C)[C@H](OC)[C@@H](O)[C@@H]3O)[C@H](C)/C=C(C)/C=C(C)/C=C(\C)C(=O)O2)C(C)=C[C@H]1C` (stereo partly drawn) [compound of formula 1], the pIC50 in series [1] and in [2] was 5.00 throughout. The “cytotoxic activity relative to apoptolidin” value in [5] and in series [6] was 1% each time. In series [3], the time structure retained entry is recorded as “at least 28 hours”. Besides, the time remained intact result in [3] (pH 7) is recorded as “at least 28 hours”. For the same compound, in series [3], the “time remained intact / decomposition” value was “at least 28 hours”.

Take `CC[C@H]1/C=C/C=C/C[C@@H](C)[C@H](O)[C@@](C)(O)C(=O)[C@@H](C)[C@H](O)[C@@H](C)C(=O)[C@@H](C)[C@H](O)[C@@H](C)/C=C/C(=O)O[C@@H]2[C@H](C)[C@H](CC1)O[C@]1(CC[C@H](C)[C@H](C[C@@H](C)O)O1)[C@H]2C` [oligomycin]: in [4], the “consumption of NADH” value is “dramatically reduced” and the pKi is 6.00. In addition, the “lowest concentration showing substantial killing in presence of oxamate” value in the series on LYas cells turned out to be 0.1 mM.
